Experimental findings from paper PMC8213385, “Development of a Fluorescent Assay to Search New Drugs Using Stable tdTomato-Leishmania, and the Selection of Galangin as a Candidate With Anti-Leishmanial Activity” (Frontiers in Cellular and Infection Microbiology, 2021) are described below.

Format in all cases: cell-based, Leishmania (Leishmania) amazonensis
For experiment [1], the system named is promastigotes of L. amaz/tc3. In words: Fluorescence assay against promastigotes of L. amaz/tc3 (tdTomato). The conditions noted are these: Leishmania, 48 h, read-out: IC50 against promastigotes of L. amaz/tc3. The procedure:
Then, we evaluated the efficacy of MI, a reference drug for leishmaniasis by the fluorescence method (L. amaz/tc3) and by the conventional method based in counting the parasite at the optic microscope (L. amaz/wt). Mid-log promastigotes of L. amaz/tc3 and L. amaz/wt were harvest and seeded (1 x 10^6/0.1 ml) with different concentrations of MI (40 to 0.6 µg/ml) in a 96-well plate at 23°C. Promastigotes cultured only in medium were the controls. Parasite viability was determined by measuring the fluorescence of L. amaz/tc3 in a plate reader (Tecan, Männedorf, Switzerland) and by counting the mobile promastigotes in a Neubauer chamber at the optic microscope (40x) (Leitz Wetzlar, Germany) at 48 h of incubation with MI. Viability was calculated with the formula: ViabilityL.amaz/tc3 =FLt/FLc×100 where, FLt is the fluorescence of treated culture, and FLc is the fluorescence of control; ViabilityL.amaz/wt=NPt/NPc×100 where, NPt is the number of promastigotes in the treated culture, and NPc is the number of promastigotes in control culture. Then, the 50% inhibitory concentration (IC50) of MI was estimated.
After fluorescence assay validation as it is described above, the method was used to evaluate in vitro the flavonoids anti-leishmanial activity. Mid-log promastigotes of L. amaz/tc3 were harvest and seeded with different concentrations of GAL (1,200 to 18.75 µM), MO, FI and RU (40 to 1.25 µM), and EGCG (300 to 18.75 µM). Positive control were promastigotes treated with PE (4 to 0.25 µM), the negative control were promastigotes cultured with medium only, and the blank was the culture medium. The parasites were incubated at 23°C for 48 h. The anti-leishmanial activity was determined by measuring the parasite fluorescence in a plate reader (Tecan, Männedorf, Switzerland). The viability was estimated as was described above for MI (fluorescent assay). The IC50 was calculated for each compound.

Experiment [2] deals with intracellular amastigotes of L. amaz/tc3. Nature of the experiment: Fluorescence assay in the macrophage-amastigote model (Raw 264.7 infected with L. amaz/tc3). Here is the method:
(§1) Furthermore, the efficacy of MI was also determined against intracellular amastigotes of L. amaz/tc3 and L. amaz/wt. Raw 264.7 macrophages were plated in 96-well black plate (5 x 10^4 cells/well) and in eight well Lab-Tek tissue culture slides (6.6 x 10^4 cells/ml) (Nunc, USA). The cells were infected with promastigotes in stationary phase of L. amaz/tc3 and L. amaz/wt (1:20 ratio) at 33°C, 5% CO2. After incubation, the infected macrophages were washed to remove non-internalized parasites with PBS plus P-S. New RPMI-1640 medium with different concentrations of MI (20 to 0.62 µg/ml) was added to each well and incubated at 33°C, 5% CO2 during 48 h. The anti-leishmanial activity of MI was determined by measuring the fluorescence of intracellular amastigotes of L. amaz/tc3 in a plate reader (Tecan, Männedorf, Switzerland). The viability was calculated as mentioned above, and the IC50 was also estimated. Simultaneously, the leishmanicidal activity of MI against L. amaz/wt was determined by the microscopy test. In this case, the infected macrophages were stained with Diff Quik (Biopur S.R.L., Rosario, Argentina) and the number of intracellular amastigotes was determined in 200-500 macrophages in treated and control cultures per slide under the immersion lens microscope (100x) (Leitz Wetzlar, Germany). The infection index (II) and the % infectivity (I) were calculated by the following formulas: II = IM × A, where IM= infected macrophages (%), A= number of amastigotes per infected macrophages; and I(%)=IIT/IIc×100, where IIT= infection index in treated cultures, IIC= infection index in control cultures ([Ayres et al., 2008]). The IC50 of MI was calculated.
The flavonoids anti-leishmanial activity was also evaluated against intracellular amastigotes. Macrophages (Raw 264.7) were plated in 96-well black plate (5 x 10^4 cell/well) and infected with promastigotes in stationary phase of L. amaz/tc3 (1:20 ratio) at 33°C, 5% CO2. After incubation, the infected macrophages were washed to remove non-internalized parasites with PBS plus P-S. New RPMI-1640 medium with different concentrations of GAL (30 to 3.75 µM), MO (300 to 37.5 µM), FI (65 to 8.12 µM), RU (300 to 37.5 µM) and EGCG (30 to 7.5 µM) was added to each well and incubated at 33°C, 5% CO2 for 48 h. Infected cells treated with Ma (136.6 to 34.1 µM) were the positive controls, and cells incubated only with RPMI-1640 were the negative control. The infected macrophages were incubated during 48 h at 33°C, 5% CO2. After treatment, the fluorescence of intracellular amastigotes of L. amaz/tc3 was measured in a plate reader (Tecan, Männedorf, Switzerland). The viability was determined as was described for MI (fluorescent assay). The selectivity index (SI) (CC50 for macrophages/IC50 for Leishmania) was calculated.

Experiment [3] concerns intracellular amastigotes of L. (L.) amazonensis. In words: Microscopic assay, counting intracellular amastigotes in Raw 264.7 macrophages at the optic microscope. Here is the method: as §1
Then, to estimate the IC50 values of GAL, FI and MO; and to confirm the IC50 of RU, the activity was evaluated quantifying the intracellular amastigotes at the optic microscope. We followed the same methodology described for MI (microscopic assay) in “In Vitro, Fluorescent Assay Validation” section and the range of concentrations were for GAL (30 to 7.5 µM), FI (60 to 15 µM), RU and MO (200 to 50 µM), EGCG (142 a 17.7 µM).

Experiment [4] concerns promastigotes of L. amaz/tc3. Nature of the experiment: Transmission electron microscopy of treated promastigotes. The conditions noted are these: exposed to the IC50, 48 h. Here is the method:
Ultrastructural alterations in Leishmania induced by flavonoids with anti-leishmanial activity were analyzed by transmission electron microscopy (TEM). […] The control was a culture of L. amaz/tc3 incubated in complete RPMI-1640 medium. After 48 h of incubation, samples of L. amaz/tc3 promastigotes from each culture were fixed in modified Karnovsky’s solution (formaldehyde [2.66%], glutaraldehyde [1.66%]) and PBS 0.1M (pH 7,4), and incubated overnight at 4°C. The fixed samples were post-fixed with a 1/1 solution of PBS/2% osmium tetroxide (OsO4), overnight. Then the material was dehydrated and included in Spurr (Pelco, USA). Ultrathin sections were cut with an ultramicrotome (MT1, Sorvall, USA), mounted on copper grids, and contrasted with uranyl acetate (PELCO, USA) and lead citrate.

Consider `O=c1c(O)c(-c2ccccc2)oc2cc(O)cc(O)c12` [GAL, Galangin], for which the IC50 in experiment [1] stood at 53.1 µM; in experiment [3] (Leishmania amazonensis, RAW264.7, Raw 264.7 macrophages, 48 h, optic microscope, read-out: Microscopic IC50 μM (SE), intracellular amastigotes) it was 20.6 µM. For the same compound, in experiment [2] (15 µM, 48 h), the “Fluorescence Inhibition (%) of amastigotes” value amounted to 29%. For the same compound, the inhibition at 15 µM in experiment [2] (Leishmania, RAW264.7, 48 h, read-out: Fluorescence Inhibition (%) of amastigotes, 15 µM, 48 h) was 29 to 31%. Also, the “SI (Selectivity index)” value in experiment [3] (CC50 for macrophages/IC50 for Leishmania (intracellular amastigotes; Ma from fluorescence IC50)) is 1.1. In experiment [4], the “Ultrastructural alterations in promastigotes (TEM)” value was “dramatic changes in the mitochondrial structure”.
